Experimental data reported in the CheMixHub viscosity set.
± gives the uncertainty stated by the source.

Test: xn = mol fraction of the nth substance listed

CC#N + CCCCO
viscosity (298.15 K, 101 kPa, x1 = 0.055): 2.123 ± 0.027 mPa·s | viscosity (298.15 K, 101 kPa, x1 = 0.1178): 1.764 ± 0.022 mPa·s | viscosity (298.15 K, 101 kPa, x1 = 0.1952): 1.449 ± 0.017 mPa·s | viscosity (298.15 K, 101 kPa, x1 = 0.2302): 1.322 ± 0.016 mPa·s | viscosity (298.15 K, 101 kPa, x1 = 0.3526): 1.016 ± 0.012 mPa·s | viscosity (298.15 K, 101 kPa, x1 = 0.4775): 0.792 ± 0.009 mPa·s | viscosity (298.15 K, 101 kPa, x1 = 0.5911): 0.615 ± 0.007 mPa·s | viscosity (298.15 K, 101 kPa, x1 = 0.7026): 0.504 ± 0.006 mPa·s | viscosity (298.15 K, 101 kPa, x1 = 0.7906): 0.433 ± 0.005 mPa·s | viscosity (298.15 K, 101 kPa, x1 = 0.9094): 0.383 ± 0.004 mPa·s | viscosity (298.15 K, 101.3 kPa, x1 = 0.1671): 1.475 ± 0.035 mPa·s | viscosity (298.15 K, 101.3 kPa, x1 = 0.311): 1.029 ± 0.025 mPa·s | viscosity (298.15 K, 101.3 kPa, x1 = 0.4362): 0.77 ± 0.02 mPa·s | viscosity (298.15 K, 101.3 kPa, x1 = 0.5462): 0.605 ± 0.016 mPa·s | viscosity (298.15 K, 101.3 kPa, x1 = 0.6436): 0.484 ± 0.014 mPa·s | viscosity (298.15 K, 101.3 kPa, x1 = 0.7303): 0.441 ± 0.013 mPa·s | viscosity (298.15 K, 101.3 kPa, x1 = 0.8082): 0.403 ± 0.012 mPa·s | viscosity (298.15 K, 101.3 kPa, x1 = 0.8784): 0.387 ± 0.012 mPa·s | viscosity (298.15 K, 101.3 kPa, x1 = 0.942): 0.348 ± 0.011 mPa·s | viscosity (303.15 K, 101 kPa, x1 = 0.055): 1.695 ± 0.022 mPa·s | viscosity (303.15 K, 101 kPa, x1 = 0.0999): 1.696 ± 0.012 mPa·s | viscosity (303.15 K, 101 kPa, x1 = 0.1178): 1.422 ± 0.018 mPa·s | viscosity (303.15 K, 101 kPa, x1 = 0.1952): 1.186 ± 0.014 mPa·s | viscosity (303.15 K, 101 kPa, x1 = 0.2): 1.322 ± 0.01 mPa·s | viscosity (303.15 K, 101 kPa, x1 = 0.2302): 1.086 ± 0.013 mPa·s | viscosity (303.15 K, 101 kPa, x1 = 0.2997): 1.054 ± 0.008 mPa·s | viscosity (303.15 K, 101 kPa, x1 = 0.3526): 0.854 ± 0.01 mPa·s | viscosity (303.15 K, 101 kPa, x1 = 0.4): 0.842 ± 0.006 mPa·s | viscosity (303.15 K, 101 kPa, x1 = 0.4775): 0.681 ± 0.008 mPa·s | viscosity (303.15 K, 101 kPa, x1 = 0.5): 0.695 ± 0.005 mPa·s | viscosity (303.15 K, 101 kPa, x1 = 0.5911): 0.538 ± 0.006 mPa·s | viscosity (303.15 K, 101 kPa, x1 = 0.5998): 0.574 ± 0.005 mPa·s | viscosity (303.15 K, 101 kPa, x1 = 0.6999): 0.482 ± 0.004 mPa·s | viscosity (303.15 K, 101 kPa, x1 = 0.7026): 0.445 ± 0.005 mPa·s | viscosity (303.15 K, 101 kPa, x1 = 0.7906): 0.391 ± 0.005 mPa·s | viscosity (303.15 K, 101 kPa, x1 = 0.8): 0.413 ± 0.004 mPa·s | viscosity (303.15 K, 101 kPa, x1 = 0.9): 0.362 ± 0.003 mPa·s | viscosity (303.15 K, 101 kPa, x1 = 0.9094): 0.348 ± 0.004 mPa·s | viscosity (303.15 K, 101.3 kPa, x1 = 0.1671): 1.336 ± 0.032 mPa·s | viscosity (303.15 K, 101.3 kPa, x1 = 0.311): 0.937 ± 0.023 mPa·s | viscosity (303.15 K, 101.3 kPa, x1 = 0.4362): 0.706 ± 0.018 mPa·s | viscosity (303.15 K, 101.3 kPa, x1 = 0.5462): 0.566 ± 0.015 mPa·s | viscosity (303.15 K, 101.3 kPa, x1 = 0.6436): 0.457 ± 0.013 mPa·s | viscosity (303.15 K, 101.3 kPa, x1 = 0.7303): 0.408 ± 0.012 mPa·s | viscosity (303.15 K, 101.3 kPa, x1 = 0.8082): 0.381 ± 0.011 mPa·s | viscosity (303.15 K, 101.3 kPa, x1 = 0.8784): 0.367 ± 0.011 mPa·s | viscosity (303.15 K, 101.3 kPa, x1 = 0.942): 0.327 ± 0.01 mPa·s | viscosity (308.15 K, 101 kPa, x1 = 0.055): 1.365 ± 0.018 mPa·s | viscosity (308.15 K, 101 kPa, x1 = 0.0999): 1.517 ± 0.011 mPa·s | viscosity (308.15 K, 101 kPa, x1 = 0.1178): 1.159 ± 0.014 mPa·s | viscosity (308.15 K, 101 kPa, x1 = 0.1952): 0.978 ± 0.012 mPa·s | viscosity (308.15 K, 101 kPa, x1 = 0.2): 1.197 ± 0.009 mPa·s | viscosity (308.15 K, 101 kPa, x1 = 0.2302): 0.899 ± 0.011 mPa·s | viscosity (308.15 K, 101 kPa, x1 = 0.2997): 0.957 ± 0.007 mPa·s | viscosity (308.15 K, 101 kPa, x1 = 0.3526): 0.721 ± 0.008 mPa·s | viscosity (308.15 K, 101 kPa, x1 = 0.4): 0.781 ± 0.006 mPa·s | viscosity (308.15 K, 101 kPa, x1 = 0.4775): 0.585 ± 0.007 mPa·s | viscosity (308.15 K, 101 kPa, x1 = 0.5): 0.643 ± 0.005 mPa·s | viscosity (308.15 K, 101 kPa, x1 = 0.5911): 0.472 ± 0.005 mPa·s | viscosity (308.15 K, 101 kPa, x1 = 0.5998): 0.536 ± 0.004 mPa·s | viscosity (308.15 K, 101 kPa, x1 = 0.6999): 0.453 ± 0.004 mPa·s | viscosity (308.15 K, 101 kPa, x1 = 0.7026): 0.397 ± 0.005 mPa·s | viscosity (308.15 K, 101 kPa, x1 = 0.7906): 0.352 ± 0.004 mPa·s | viscosity (308.15 K, 101 kPa, x1 = 0.8): 0.391 ± 0.004 mPa·s | viscosity (308.15 K, 101 kPa, x1 = 0.9): 0.345 ± 0.003 mPa·s | viscosity (308.15 K, 101 kPa, x1 = 0.9094): 0.32 ± 0.004 mPa·s | viscosity (308.15 K, 101.3 kPa, x1 = 0.1671): 1.204 ± 0.029 mPa·s | viscosity (308.15 K, 101.3 kPa, x1 = 0.311): 0.849 ± 0.022 mPa·s | viscosity (308.15 K, 101.3 kPa, x1 = 0.4362): 0.65 ± 0.017 mPa·s | viscosity (308.15 K, 101.3 kPa, x1 = 0.5462): 0.535 ± 0.015 mPa·s | viscosity (308.15 K, 101.3 kPa, x1 = 0.6436): 0.431 ± 0.012 mPa·s | viscosity (308.15 K, 101.3 kPa, x1 = 0.7303): 0.391 ± 0.012 mPa·s | viscosity (308.15 K, 101.3 kPa, x1 = 0.8082): 0.361 ± 0.011 mPa·s | viscosity (313.15 K, 101 kPa, x1 = 0.0999): 1.364 ± 0.01 mPa·s | viscosity (313.15 K, 101 kPa, x1 = 0.2): 1.085 ± 0.008 mPa·s | viscosity (313.15 K, 101 kPa, x1 = 0.2997): 0.876 ± 0.006 mPa·s | viscosity (313.15 K, 101 kPa, x1 = 0.4): 0.723 ± 0.005 mPa·s | viscosity (313.15 K, 101 kPa, x1 = 0.5): 0.601 ± 0.005 mPa·s | viscosity (313.15 K, 101 kPa, x1 = 0.5998): 0.502 ± 0.004 mPa·s | viscosity (313.15 K, 101 kPa, x1 = 0.6999): 0.427 ± 0.004 mPa·s | viscosity (313.15 K, 101 kPa, x1 = 0.8): 0.374 ± 0.003 mPa·s | viscosity (313.15 K, 101 kPa, x1 = 0.9): 0.329 ± 0.003 mPa·s | viscosity (318.15 K, 101 kPa, x1 = 0.0999): 1.231 ± 0.009 mPa·s | viscosity (318.15 K, 101 kPa, x1 = 0.2): 0.986 ± 0.007 mPa·s | viscosity (318.15 K, 101 kPa, x1 = 0.2997): 0.803 ± 0.006 mPa·s | viscosity (318.15 K, 101 kPa, x1 = 0.4): 0.667 ± 0.005 mPa·s | viscosity (318.15 K, 101 kPa, x1 = 0.5): 0.555 ± 0.004 mPa·s | viscosity (318.15 K, 101 kPa, x1 = 0.5998): 0.47 ± 0.004 mPa·s | viscosity (318.15 K, 101 kPa, x1 = 0.6999): 0.402 ± 0.004 mPa·s | viscosity (318.15 K, 101 kPa, x1 = 0.8): 0.354 ± 0.003 mPa·s | viscosity (318.15 K, 101 kPa, x1 = 0.9): 0.315 ± 0.003 mPa·s | viscosity (323.15 K, 101 kPa, x1 = 0.0999): 1.111 ± 0.008 mPa·s | viscosity (323.15 K, 101 kPa, x1 = 0.2): 0.9 ± 0.006 mPa·s | viscosity (323.15 K, 101 kPa, x1 = 0.2997): 0.738 ± 0.005 mPa·s | viscosity (323.15 K, 101 kPa, x1 = 0.4): 0.619 ± 0.005 mPa·s | viscosity (323.15 K, 101 kPa, x1 = 0.5): 0.519 ± 0.004 mPa·s | viscosity (323.15 K, 101 kPa, x1 = 0.5998): 0.442 ± 0.004 mPa·s | viscosity (323.15 K, 101 kPa, x1 = 0.6999): 0.381 ± 0.003 mPa·s | viscosity (323.15 K, 101 kPa, x1 = 0.8): 0.336 ± 0.003 mPa·s | viscosity (323.15 K, 101 kPa, x1 = 0.9): 0.301 ± 0.003 mPa·s
